Reference: paper PMC6658998, “Pharmacological characterization of the seven human NOX isoforms and their inhibitors” (Redox Biology, 2019)

What was measured:
human NOX1 = target: T1, human NOX1 (Homo sapiens, UniProt Q9Y5S8); assay: Amplex Red/HRP H2O2 detection in NOX1-expressing CHO cells; format: cell-based; settings: PMA 0.1 μM, read-out: IC50 NOX1 (CHO) AR
T1 construct: expressed in transfected cells; host or cells: CHO
T1 sequence (Q9Y5S8 1-564): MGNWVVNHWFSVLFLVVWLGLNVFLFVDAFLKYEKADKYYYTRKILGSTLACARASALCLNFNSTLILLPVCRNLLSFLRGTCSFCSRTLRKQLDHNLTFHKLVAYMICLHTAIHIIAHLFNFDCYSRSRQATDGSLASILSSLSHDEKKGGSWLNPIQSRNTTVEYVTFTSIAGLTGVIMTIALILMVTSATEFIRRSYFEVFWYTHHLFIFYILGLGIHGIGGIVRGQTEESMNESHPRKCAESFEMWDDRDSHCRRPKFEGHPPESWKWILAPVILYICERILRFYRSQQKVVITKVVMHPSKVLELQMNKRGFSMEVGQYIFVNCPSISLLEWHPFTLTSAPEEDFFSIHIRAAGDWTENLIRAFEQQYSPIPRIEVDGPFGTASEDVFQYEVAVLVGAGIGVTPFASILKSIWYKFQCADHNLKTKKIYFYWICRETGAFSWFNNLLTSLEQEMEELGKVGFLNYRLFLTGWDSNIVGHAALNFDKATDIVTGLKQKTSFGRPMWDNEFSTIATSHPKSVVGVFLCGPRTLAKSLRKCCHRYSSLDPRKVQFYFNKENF
T1 sequence (P13498 1-195 partner): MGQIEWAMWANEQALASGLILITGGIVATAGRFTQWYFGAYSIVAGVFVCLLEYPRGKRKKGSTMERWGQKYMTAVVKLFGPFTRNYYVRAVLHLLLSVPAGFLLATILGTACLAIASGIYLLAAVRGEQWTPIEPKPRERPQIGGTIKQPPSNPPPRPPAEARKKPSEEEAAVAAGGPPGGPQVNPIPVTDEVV

NOX5 [1] = target: T2, NOX5 (Homo sapiens, UniProt Q96PH1); assay: Amplex Red/HRP H2O2 detection in NOX5-expressing HEK293 cells; format: cell-based; settings: PMA 0.1 μM and ionomycin 1 μM, read-out: IC50 NOX5 (HEK) AR
T2 construct: expressed in transfected cells
T2 sequence (Q96PH1 19-737 isoform Q96PH1-3 limits assumed): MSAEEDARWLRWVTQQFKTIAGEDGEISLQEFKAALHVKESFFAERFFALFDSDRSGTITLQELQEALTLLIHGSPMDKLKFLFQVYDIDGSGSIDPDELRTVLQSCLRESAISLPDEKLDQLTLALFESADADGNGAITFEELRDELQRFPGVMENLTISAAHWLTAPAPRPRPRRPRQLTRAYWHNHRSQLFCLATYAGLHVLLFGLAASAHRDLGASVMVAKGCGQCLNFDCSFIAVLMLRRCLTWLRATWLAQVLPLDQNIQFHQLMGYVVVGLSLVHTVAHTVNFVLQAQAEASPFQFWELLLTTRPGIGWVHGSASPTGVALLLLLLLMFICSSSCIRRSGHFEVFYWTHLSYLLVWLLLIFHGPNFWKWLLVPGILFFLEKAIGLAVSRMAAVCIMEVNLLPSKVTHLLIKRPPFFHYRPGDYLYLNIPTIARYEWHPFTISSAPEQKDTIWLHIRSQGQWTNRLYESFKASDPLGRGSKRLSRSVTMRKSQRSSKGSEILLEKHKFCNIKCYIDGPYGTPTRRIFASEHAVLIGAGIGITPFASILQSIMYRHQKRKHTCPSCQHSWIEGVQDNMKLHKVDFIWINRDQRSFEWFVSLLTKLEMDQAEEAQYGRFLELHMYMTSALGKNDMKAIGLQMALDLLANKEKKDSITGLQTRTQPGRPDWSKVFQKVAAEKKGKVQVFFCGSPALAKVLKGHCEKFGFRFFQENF

NOX5 [2] = target: T2, NOX5; assay: NOX5 activity in purified membranes of HEK293 cells expressing NOX5 (WST-1, CBA); format: biochemical; settings: for Inhibitory activity in NOX5 membrane assay: WST-1 / CBA, concentration not given
Description: PLB-985 (40 dishes 150 cm^2) were grown in suspension and differentiated by addition of 1.25% DMSO for 72 h. HEK293 cells expressing NOX5 (40 dishes 150 cm^2) were amplified until confluence and detached using trypsin-EDTA for 5 min followed by addition of 2 vol of pre-warmed complete growth media to inactivate trypsin. Collected cells were centrifuged at 4000 ×g for 10 min. Cells were washed with PBS and centrifuged at 1500 ×g for 10 min. The supernatant was discarded and the pellet was placed at −80 °C for at least 30 min. […] Samples were sonicated two times for 25 s (level 7, Branson Sonifier 250). Cell debris were removed by centrifugation at 800 ×g for 10 min at 4 °C. The supernatant was laid on a sucrose gradient consisting of a bottom layer of 1 mL 40% sucrose and an upper layer of 1 mL 17% sucrose. Ultracentrifugation was performed at 150,000 ×g in SW60 rotor for 30 min at 4 °C. Following separation, the upper cytosolic fraction was discarded and the cloudy membrane fraction was collected. Protein concentration was determined with Bradford reagent using BSA as a standard. Small aliquots were kept at −80 °C.
NOX2 containing membranes were used at 10 μg/mL of proteins in a reaction mixture containing 90 nM recombinant RacQ61L, 45 nM recombinant p67Np47 N chimeric protein (consisting of a fusion of the N-termini of human p67phox [residues 1–210] and p47phox [residues 1–286]), 90 μM SDS, 1 μM FAD-Na2 and 1 mM WST-1 or 800 μM CBA in PBS. The reaction mixture was dispensed in 96-well plates (transparent for WST-1 absorbance, black for CBA fluorescence) at 80 μL/well and the plate was incubated for 5 min at 37 °C. The reaction was initiated by addition of 20 μL/well NADPH at final concentration 100 μM. NOX5 containing membranes were used at 20 μg/mL of proteins in a reaction mixture containing 50 mM HEPES pH 7.4, 1 mM NTA, 1 mM EDTA, 1 mM BAPTA, 1 mM MgCl2, 5.5 μM phosphatidic acid, 1 μM FAD, 700 μM CaCl2 and 1 mM WST-1 or 800 μM CBA in Milli-Q H2O. The reaction mixture was dispensed in 96-well plates (transparent for absorbance, black for fluorescence) at 80 μL/well and 20 μL/well of NADPH at final concentration of 200 μM were added to initiate the reaction.
Reported NOX inhibitors were added in 96 well plates at a single concentration as indicated to which mix containing membrane fractions and all components of the NOX2 or NOX5 membrane assays were added except NADPH. After 2–3 min incubation, 200 μM NADPH was added to start the reaction.

Row | SMILES | IC50 (human NOX1) | IC50 (NOX5 [1]) | Inhibition of NOX5-dependent signal in membranes (NOX5 [2]; compound 50 μM) | Inhibitory activity in NOX5 membrane assay (NOX5 [2]) | Inhibitory activity in NOX5 membrane assay (NOX5 [2]; listed as VAS280)
1 | COc1cc(C(C)=O)cc(-c2cc(C(C)=O)cc(OC)c2O)c1O [Diapocynin, diapocynin] | 32.7 µM | 16.6 µM | – | – | –
2 | O=c1c2ccccc2[se]n1-c1ccccc1 [Ebselen, ebselen] | 2.9 µM | 2.1 µM | inhibited | – | –
3 | COc1cc(C(C)=O)ccc1O [Apocynin, apocynin] | > 50 µM | > 50 µM | – | – | –
4 | c1ccc2c(c1)[I+]c1ccccc1-2 [DPI, diphenylene iodonium chloride] | – | – | – | potently inhibited | –
5 | Cc1c2c(=O)n(-c3ccccc3Cl)[nH]c2cc(=O)n1Cc1ccccn1 [GKT136901] | 9.2 µM | 8 µM | – | – | –
6 | c1ccc(Cn2nnc3c(Sc4nc5ccccc5o4)ncnc32)cc1 [VAS2870, 3-benzyl-7-(2-benzoxazolyl)thio-1,2,3-triazolo[4,5-d]pyrimidine] | – | – | – | no inhibitory activity | some level of inhibition
